Patent US11066414B2, “Cot modulators and methods of use thereof” (Gilead Sciences, Inc., priority 2015, dated 2021)
pEC50, pIC50: −log10 of the molar value.

Experiments:
Human Cot = Human Cot (Homo sapiens (Human), UniProt P41279); test: High Throughput Cot Biochemical Assay; conditions: IC50 HTRF, Cot HTRF (TR-FRET) biochemical assay
TNFα = test: Cot Monocyte TNFα Cell Based Assay; conditions: Homo sapiens, Monocyte, read-out: EC50 TNF, LPS-stimulated human monocytes, TNFα

Chain of Human Cot (P41279 30-397): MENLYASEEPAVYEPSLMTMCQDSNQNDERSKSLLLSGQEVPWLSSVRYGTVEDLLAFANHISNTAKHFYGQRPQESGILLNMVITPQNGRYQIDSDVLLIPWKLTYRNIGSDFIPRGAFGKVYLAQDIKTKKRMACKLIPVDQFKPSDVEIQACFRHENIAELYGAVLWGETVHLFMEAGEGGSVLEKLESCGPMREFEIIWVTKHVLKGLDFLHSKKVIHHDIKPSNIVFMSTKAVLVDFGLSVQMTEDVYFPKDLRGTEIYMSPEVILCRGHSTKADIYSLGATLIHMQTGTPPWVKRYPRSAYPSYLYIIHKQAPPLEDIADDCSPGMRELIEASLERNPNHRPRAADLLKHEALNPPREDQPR

Structure (SMILES) | pIC50 (Human Cot) | pEC50 (TNFα)
Cc1nc(F)ccc1[C@H](Nc1cc(C#N)c2ncc(C#N)c(NCC(C)(C)C)c2c1)c1cn(C2(C#N)CCC2)nn1 [Example 491, (S)-6-(((1-(1-cyanocyclobutyl)-1H-1,2,3-triazol-4-yl)(6-fluoro-2-methylpyridin-3-yl)methyl)amino)-4-(neopentylamino)-quinoline-3,8-dicarbonitrile] | 8.52 | 7.40
CC(C)(C)CNc1c(C#N)cnc2c(Cl)cc(N[C@H](c3cn(C4(C(F)(F)F)CC4)nn3)c3cnn4ncccc34)cc12 [Example 493, (S)-8-chloro-4-(neopentylamino)-6-((pyrazolo[1,5-b]pyridazin-3-yl(1-(1-(trifluoromethyl)cyclopropyl)-1H-1,2,3-triazol-4-yl)methyl)amino)quinoline-3-carbonitrile] | 7.51 | 6.00
Cc1nc(F)ccc1[C@H](Nc1cc(Cl)c2ncc(C#N)c(NCC(C)(C)C)c2c1)c1cn(C2(CF)CC2)nn1 [Example 495, (S)-8-chloro-6-(((6-fluoro-2-methylpyridin-3-yl)(1-(1-(fluoromethyl)cyclopropyl)-1H-1,2,3-triazol-4-yl)methyl)amino)-4-(neopentylamino)quinoline-3-carbonitrile] | 8.52 | 7.30
Cn1ncc2c([C@H](Nc3cc(Cl)c4ncc(C#N)c(NCC(C)(C)C)c4c3)c3cn(C4(C(F)F)CC4)nn3)cccc21 [Example 496, (S)-8-chloro-6-(((1-(1-(difluoromethyl)-cyclopropyl)-1H-1,2,3-triazol-4-yl)(1-methyl-1H-indazol-4-yl)methyl)amino)-4-(neopentylamino)quinoline-3-carbonitrile] | 8.22 | 6.33

Continued, values first:

pIC50 (Human Cot) | pEC50 (TNFα) | Structure (SMILES)
8.52 | 7.10 | Cc1nc(F)ccc1[C@H](Nc1cc(F)c2ncc(C#N)c(NCC(C)(C)C)c2c1)c1cn(C2(C)CC2)nn1 [Example 488, (S)-8-fluoro-6-(((6-fluoro-2-methylpyridin-3-yl)(1-(1-methylcyclopropyl)-1H-1,2,3-triazol-4-yl)methyl)amino)-4-(neopentyl-amino)quinoline-3-carbonitrile]
8.70 | 6.89 | Cc1nc(F)ccc1[C@H](Nc1cc(C#N)c2ncc(C#N)c(NCC(C)(C)C)c2c1)c1cn(C2(C#N)CC2)nn1 [Example 489, (S)-6-(((1-(1-cyanocyclopropyl)-1H-1,2,3-triazol-4-yl)(6-fluoro-2-methylpyridin-3-yl)methyl)amino)-4-(neopentylamino)-quinoline-3,8-dicarbonitrile]
9.00 | 6.00 | Cc1nc(F)ccc1[C@H](Nc1cc(C#N)c2ncc(C#N)c(NCC(C)(C)C)c2c1)c1cn(C2(C(N)=O)CC2)nn1 [Example 490, (S)-1-(4-(((3,8-dicyano-4-(neopentylamino)-quinolin-6-yl)amino)(6-fluoro-2-methylpyridin-3-yl)methyl)-1H-1,2,3-triazol-1-yl)cyclopropane-1-carboxamide]
8.70 | 7.68 | Cc1nc(F)ccc1[C@H](Nc1cc(C#N)c2ncc(C#N)c(NCC(C)(C)C)c2c1)c1cn(C2(C)CC2)nn1 [Example 492, (S)-6-(((6-fluoro-2-methylpyridin-3-yl)(1-(1-methylcyclopropyl)-1H-1,2,3-triazol-4-yl)methyl)amino)-4-(neopentylamino)-quinoline-3,8-dicarbonitrile]
9.00 | 6.35 | Cc1nc(F)ccc1[C@H](Nc1cc(C#N)c2ncc(C#N)c(NCC(C)(C)C)c2c1)c1cn(C2(C(N)=O)CCC2)nn1 [Example 494, (S)-1-(4-(((3,8-dicyano-4-(neopentyl-amino)quinolin-6-yl)amino)(6-fluoro-2-methylpyridin-3-yl)methyl)-1H-1,2,3-triazol-1-yl)cyclobutane-1-carboxamide]
